# Data as given in patent US11447517B2, “Galactoside inhibitor of galectins” (GALECTO BIOTECH AB, priority 2018, dated 2022).
# Target: galectin-3 (Homo sapiens (Human), UniProt P17931)
# Experiment: Fluorescence anisotropy assay, inhibition of galectin / fluorescein tagged saccharide probe interaction
# Assay type: binding
# Experimental: Evaluation of Kd Values The affinity of Example 1-71 for galectins were determined by a fluorescence anisotropy assay where the compound was used as an inhibitor of the interaction between galectin and a fluorescein tagged saccharide probe as described Sörme, P., Kahl-Knutsson, B., Huflejt, M., Nilsson, U. J., and Leffler H. (2004) Fluorescence polarization as an analytical tool to evaluate galectin-ligand interactions. Anal. Biochem. 334: 36-47, (Sörme et al., 2004) and Monovalent interactions of Galectin-1 By Salomonsson, Emma; Larumbe, Amaia; Tejler, Johan; Tullberg, Erik; Rydberg, Hanna; Sundin, Anders; Khabut, Areej; Frejd, Torbjorn; Lobsanov, Yuri D.; Rini, James M.; et al, From Biochemistry (2010), 49(44), 9518-9532, (Salomonsson et al., 2010). […] 100 nM albumin was included as a carrier to prevent protein loss at such low concentration of galectin.
# Chain of galectin-3 (P17931 whole entry): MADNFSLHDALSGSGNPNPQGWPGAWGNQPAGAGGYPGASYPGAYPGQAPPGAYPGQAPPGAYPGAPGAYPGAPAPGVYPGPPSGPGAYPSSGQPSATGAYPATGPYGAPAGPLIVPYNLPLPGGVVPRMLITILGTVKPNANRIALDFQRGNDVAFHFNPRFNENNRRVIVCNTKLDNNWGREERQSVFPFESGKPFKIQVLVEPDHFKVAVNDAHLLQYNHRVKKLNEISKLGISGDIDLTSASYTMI
row,Kd [nM],SMILES
1,21,"CO[C@@H]1[C@@H](n2cc(-c3cc(F)c(Cl)c(F)c3)nn2)[C@@H](O)[C@@H](CO)O[C@@H]1Sc1cncc(Br)c1 [Example 34, 5-Bromopyridin-3-yl 3-[4-(4-chloro-3,5-difluorophenyl)-1H-1,2,3-triazol-1-yl]-3-deoxy-2-O-methyl-1-thio-α-D-galactopyranoside]"
2,28,"CO[C@@H]1[C@@H](n2cc(-c3cc(F)c(F)c(F)c3)nn2)[C@@H](O)[C@@H](CO)O[C@@H]1Sc1cc(Cl)cnc1-c1cncnc1 [Example 24, 5-Chloro-2-(pyrimidin-5-yl)pyridin-3-yl 3-deoxy-3-[4-(3,4,5-trifluorophenyl)-1H-1,2,3-triazol-1-yl]-2-O-methyl-1-thio-α-D-galactopyranoside]"
3,59,"CCO[C@@H]1[C@@H](n2cc(-c3cc(F)c(F)c(F)c3)nn2)[C@@H](O)[C@@H](CO)O[C@@H]1Sc1cc(Cl)cnc1C#N [Example 16, 5-Chloro-2-cyanopyridin-3-yl 3-deoxy-2-O-ethyl-3-[4-(3,4,5-trifluorophenyl)-1H-1,2,3-triazol-1-yl]-1-thio-α-D-galactopyranoside]"
4,82,"OC[C@H]1O[C@H](Sc2cncc(Br)c2)[C@H](OCC(O)C(F)(F)F)[C@@H](n2cc(-c3cc(F)c(F)c(F)c3)nn2)[C@H]1O (stereo partly drawn) [Example 5, 5-Bromopyridin-3-yl 3-deoxy-3-[4-(3,4,5-trifluorophenyl)-1H-1,2,3-triazol-1-yl]-2-O-(1,1,1-trifluoro-2-hydroxyprop-3-yl)-1-thio-α-D-galactopyranoside]"
5,56,"CO[C@@H]1[C@@H](n2cc(-c3cc(F)c(F)c(F)c3)nn2)[C@@H](O)[C@@H](CO)O[C@@H]1Sc1cc(Cl)cnc1-c1ccncc1 [Example 27, 5-Chloro-2-(pyridin-4-yl)pyridin-3-yl 3-deoxy-3-[4-(3,4,5-trifluorophenyl)-1H-1,2,3-triazol-1-yl]-2-O-methyl-1-thio-α-D-galactopyranoside]"
6,62,"CO[C@@H]1[C@@H](n2cc(-c3ccc(Cl)c(F)c3)nn2)[C@@H](O)[C@@H](CO)O[C@@H]1Sc1cncc(Br)c1 [Example 38, 5-Bromopyridin-3-yl 3-[4-(4-chloro-3-fluorophenyl)-1H-1,2,3-triazol-1-yl]-3-deoxy-2-O-methyl-1-thio-α-D-galactopyranoside]"
7,55,"CO[C@@H]1[C@@H](n2cc(-c3cc(F)c(F)c(F)c3)nn2)[C@@H](O)[C@@H](CO)O[C@@H]1Sc1cc(Cl)cnc1-c1cccnc1 [Example 26, 5-Chloro-2-(pyridin-3-yl)pyridin-3-yl 3-deoxy-3-[4-(3,4,5-trifluorophenyl)-1H-1,2,3-triazol-1-yl]-2-O-methyl-1-thio-α-D-galactopyranoside]"
8,56,"CO[C@@H]1[C@@H](n2cc(-c3cc(F)c(F)c(F)c3)nn2)[C@@H](O)[C@@H](CO)O[C@@H]1Sc1cc(Cl)cnc1-c1ncco1 [Example 30, 5-Chloro-2-(oxazol-2-yl)pyridin-3-yl 3-deoxy-3-[4-(3,4,5-trifluorophenyl)-1H-1,2,3-triazol-1-yl]-2-O-methyl-1-thio-α-D-galactopyranoside]"
9,300,"CO[C@@H]1[C@@H](n2cc(-c3cc(F)c(F)c(F)c3)nn2)[C@@H](O)[C@@H](CO)O[C@@H]1Sc1cc(Cl)cnc1-c1nccs1 [Example 31, 5-Chloro-2-(thiazol-2-yl)pyridin-3-yl 3-deoxy-3-[4-(3,4,5-trifluorophenyl)-1H-1,2,3-triazol-1-yl]-2-O-methyl-1-thio-α-D-galactopyranoside]"
10,42,"CO[C@@H]1[C@@H](n2cc(-c3ccc(Cl)c(F)c3)nn2)[C@@H](O)[C@@H](CO)O[C@@H]1Sc1cncc(Cl)c1 [Example 37, 5-Chloropyridin-3-yl 3-[4-(4-chloro-3-fluorophenyl)-1H-1,2,3-triazol-1-yl]-3-deoxy-2-O-methyl-1-thio-α-D-galactopyranoside]"
11,60,"COC1[C@@H](Sc2cc(Cl)c(C#N)nc2N2CC3(COC3)C2)OC(CO)[C@H](O)[C@@H]1n1cc(-c2cc(F)c(Cl)c(F)c2)nn1 (stereo partly drawn) [Example 22, 5-Chloro-6-cyano-2-{N-(2-oxa)-6-azaspiro[3.3]heptanyl}-pyridin-3-yl 3-[4-(4-chloro-3,5-difluorophenyl)-1H-1,2,3-triazol-1-yl]-3-deoxy-2-O-methyl-1-thio-α-D-galactopyranoside]"
12,350,"CO[C@@H]1[C@@H](n2cc(-c3ccc(Cl)c(F)n3)nn2)[C@@H](O)[C@@H](CO)O[C@@H]1Sc1cc(Cl)cnc1C#N [Example 55, 5-Chloro-2-cyanopyridin-3-yl 3-[4-(5-chloro-6-fluoropyridin-2-yl)-1H-1,2,3-triazol-1-yl]-3-deoxy-2-O-methyl-1-thio-α-D-galactopyranoside]"
13,37,"COC1[C@@H](Sc2cc(Cl)c(C#N)nc2N2CC3(COC3)C2)OC(CO)[C@H](O)[C@@H]1n1cc(-c2cc(F)c(F)c(F)c2)nn1 (stereo partly drawn) [Example 23, 5-Chloro-6-cyano-2-{N-(2-oxa)-6-azaspiro[3.3]heptanyl}-pyridin-3-yl 3-deoxy-3-[4-(3,4,5-trifluorophenyl)-1H-1,2,3-triazol-1-yl]-2-O-methyl-1-thio-α-D-galactopyranoside]"
14,7,"CO[C@@H]1[C@@H](n2cc(-c3ccc(C)c(F)c3)nn2)[C@@H](O)[C@@H](CO)O[C@@H]1Sc1cc(Cl)ccc1C(=O)N1CCC1 [Example 41, 2-(N-azetidinyl-carbonyl)-5-chlorophenyl 3-deoxy-3-[4-(3-fluoro-4-methylphenyl)-1H-1,2,3-triazol-1-yl]-2-O-methyl-1-thio-α-D-galactopyranoside]"
15,15,"CO[C@@H]1[C@@H](n2cc(-c3cc(F)c(Cl)c(F)c3)nn2)[C@@H](O)[C@@H](CO)O[C@@H]1Sc1cc(Cl)ccc1C(=O)N1CCC1 [Example 40, 2-(N-azetidinyl-carbonyl)-5-chlorophenyl 3-[4-(4-chloro-3,5-difluorophenyl)-1H-1,2,3-triazol-1-yl]-3-deoxy-2-O-methyl-1-thio-α-D-galactopyranoside]"
16,190,"CO[C@@H]1[C@@H](n2cc(-c3cc(F)c(Cl)c(F)c3)nn2)[C@@H](O)[C@@H](CO)O[C@@H]1Sc1cnc(C(F)(F)F)c(C#N)c1 [Example 58, 5-Cyano-6-trifluoromethylpyridin-3-yl 3-[4-(4-chloro-3,5-difluorophenyl)-1H-1,2,3-triazol-1-yl]-3-deoxy-2-O-methyl-1-thio-α-D-galactopyranoside]"
17,35,"C#Cc1cncc(S[C@H]2O[C@H](CO)[C@H](O)[C@H](n3cc(-c4cc(F)c(Cl)c(F)c4)nn3)[C@H]2OC)c1 [Example 54, 5-Ethynylpyridin-3-yl 3-[4-(4-chloro-3,5-difluorophenyl)-1H-1,2,3-triazol-1-yl]-3-deoxy-2-O-methyl-1-thio-α-D-galactopyranoside]"
18,31,"CO[C@@H]1[C@@H](n2cc(-c3ccc(Cl)c(F)c3)nn2)[C@@H](O)[C@@H](CO)O[C@@H]1Sc1cc(Cl)cnc1C#N [Example 48, 5-Chloro-2-cyanopyridin-3-yl 3-[4-(4-chloro-3-fluorophenyl)-1H-1,2,3-triazol-1-yl]-3-deoxy-2-O-methyl-1-thio-α-D-galactopyranoside]"
19,880,"CO[C@@H]1[C@@H](n2cc(-c3ccc(Cl)c(C)n3)nn2)[C@@H](O)[C@@H](CO)O[C@@H]1Sc1cncc(Cl)c1 [Example 44, 5-Chloropyridin-3-yl 3-[4-(5-chloro-6-methylpyridin-2-yl)-1H-1,2,3-triazol-1-yl]-3-deoxy-2-O-methyl-1-thio-α-D-galactopyranoside]"
